Measurements published in the supplement of paper PMC10307832.

Experiments:
Assay in all cases: relative viability (nuclei count vs DMSO), 5 days (fraction); higher = more cells survive
[1] = compound: C1=CC=C2C(=C1)C=CC(=C2SSC3=C(C=CC4=CC=CC=C43)O)O [IPA-3] + N=C(N)NC(=N)NCCc1ccccc1 [Phenformin] (partner 250 µM)
Outline: (§1)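 Five library-drug doses in √10 steps were combined with a fixed anchor-drug dose, or a single drug was given alone, by pin tool to lung cancer cell lines in 1536-well plates the day after seeding. Nuclei were stained and counted after 5 days. Relative viability is the nuclei count in treated wells over that in vehicle wells, taken as the median of duplicate plates.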

[2] = compound: Cc1ccc(-n2nc(C(C)(C)C)cc2NC(=O)Nc2ccc(OCCN3CCOCC3)c3ccccc23)cc1 [Doramapimod] + CS(=O)(=O)CCNCc1ccc(-c2ccc3ncnc(Nc4ccc(OCc5cccc(F)c5)c(Cl)c4)c3c2)o1 [Lapatinib] (partner 2 µM)
Outline: as §1

[3] = compound: Cn1c(Nc2ccc(C(F)(F)F)cc2)nc2cc(Oc3ccnc(-c4ncc(C(F)(F)F)[nH]4)c3)ccc21 [RAF265] + N=C(N)NC(=N)NCCc1ccccc1 [Phenformin] (partner 250 µM)
Outline: as §1

[4] = compound: Cn1c(Nc2ccc(C(F)(F)F)cc2)nc2cc(Oc3ccnc(-c4ncc(C(F)(F)F)[nH]4)c3)ccc21 [RAF265] + O=C(c1cc(Cc2n[nH]c(=O)c3ccccc23)ccc1F)N1CCN(C(=O)C2CC2)CC1 [Olaparib] (partner 8 µM)
Outline: as §1

Row | Cell Line | relative viability ([1]; first compound 0.2 µM) | relative viability ([1]; first compound 0.6325 µM) | relative viability ([1]; first compound 2 µM) | relative viability ([1]; first compound 6.325 µM) | relative viability ([1]; first compound 20 µM) | relative viability ([2]; first compound 0.02 µM) | relative viability ([2]; first compound 0.06325 µM) | relative viability ([2]; first compound 0.2 µM) | relative viability ([2]; first compound 0.6325 µM) | relative viability ([2]; first compound 2 µM) | relative viability ([3]; first compound 0.01 µM) | relative viability ([3]; first compound 0.03162 µM) | relative viability ([3]; first compound 0.1 µM) | relative viability ([3]; first compound 0.3162 µM) | relative viability ([3]; first compound 1 µM) | relative viability ([4]; first compound 0.01 µM) | relative viability ([4]; first compound 0.03162 µM) | relative viability ([4]; first compound 0.1 µM) | relative viability ([4]; first compound 0.3162 µM) | relative viability ([4]; first compound 1 µM)
1 | NCI-H2009 | 0.539 | 0.477 | 0.495 | 0.445 | 0.387 | 0.95 | 0.952 | 1.13 | 0.234 | 0.888 | 0.479 | 0.416 | 0.407 | 0.468 | 0.38 | 0.785 | 0.594 | 0.603 | 0.671 | 0.579
2 | NCI-H2023 | 0.51 | 0.403 | 0.496 | 0.409 | 0.436 | 0.79 | 0.636 | 0.78 | 0.105 | 0.807 | 0.421 | 0.407 | 0.391 | 0.353 | 0.322 | 0.491 | 0.452 | 0.544 | 0.524 | 0.374
3 | NCI-H2085 | 0.82 | 0.651 | 0.744 | 0.678 | 0.585 | 0.79 | 0.764 | 0.749 | 0.836 | 0.707 | 0.858 | 0.683 | 0.742 | 0.642 | 0.644 | 0.954 | 0.723 | 0.841 | 0.854 | 0.76
4 | NCI-H2087 | 0.596 | 0.412 | 0.555 | 0.476 | 0.466 | 1.06 | 1.11 | 1.02 | 0.869 | 0.961 | 0.512 | 0.413 | 0.377 | 0.331 | 0.287 | 0.757 | 0.496 | 0.64 | 0.334 | 0.373
5 | NCI-H2126 | 0.57 | 0.517 | 0.506 | 0.516 | 0.629 | 0.815 | 0.811 | 0.781 | 0.735 | 0.662 | 0.508 | 0.551 | 0.558 | 0.512 | 0.459 | 0.942 | 0.907 | 0.901 | 0.818 | 0.724
6 | NCI-H2170 | 0.438 | 0.358 | 0.457 | 0.356 | 0.481 | 0.298 | 0.285 | 0.259 | 0.316 | 0.259 | 0.408 | 0.38 | 0.453 | 0.319 | 0.366 | 0.58 | 0.485 | 0.596 | 0.438 | 0.405
7 | NCI-H2228 | 0.556 | 0.31 | 0.336 | 0.377 | 0.284 | 1.12 | 0.926 | 1.12 | 0.933 | 1.09 | 0.287 | 0.387 | 0.357 | 0.203 | 0.186 | 0.915 | 0.691 | 0.726 | 0.291 | 0.246
8 | NCI-H2347 | 0.334 | 0.448 | 0.33 | 0.406 | 0.736 | 0.932 | 0.897 | 0.969 | 0.67 | 0.875 | 0.338 | 0.426 | 0.394 | 0.218 | 0.166 | 0.644 | 0.606 | 0.57 | 0.523 | 0.384
9 | NCI-H2405 | 0.437 | 0.386 | 0.418 | 0.389 | 0.489 | 1.15 | 1.1 | 1.07 | 1.16 | 0.969 | 0.424 | 0.372 | 0.384 | 0.344 | 0.261 | 0.96 | 0.88 | 0.834 | 0.838 | 0.514
10 | NCI-H3122 | 0.442 | 0.38 | 0.389 | 0.31 | 0.362 | 1.02 | 0.962 | 0.974 | 1.08 | 0.932 | 0.386 | 0.385 | 0.386 |  | 0.348 | 0.609 | 0.63 | 0.631 | 0.622 | 0.611
11 | PC-3 [JPC-3] | 0.462 | 0.47 | 0.495 | 0.499 | 0.489 | 0.475 | 0.433 | 0.432 | 0.485 | 0.348 | 0.457 | 0.502 | 0.469 |  | 0.465 | 1.14 | 1.06 | 1.09 | 0.537 | 0.704
12 | PC-14 | 0.614 | 0.521 | 0.572 | 0.497 | 0.801 | 0.292 | 0.322 | 0.346 | 0.425 | 0.319 | 0.578 | 0.599 | 0.864 |  | 0.539 | 0.252 | 0.311 | 0.314 | 0.369 | 0.245
13 | RERF-LC-KJ | 0.5 | 0.409 | 0.509 | 0.441 | 0.462 | 0.983 | 0.946 | 0.879 | 0.908 | 0.814 | 0.469 | 0.42 | 0.389 | 0.408 | 0.376 | 0.952 | 0.892 | 0.759 | 0.682 | 0.575
14 | SK-LU-1 | 0.775 | 0.54 | 0.499 | 0.509 | 0.588 | 0.975 | 0.947 | 0.971 | 0.806 | 0.762 | 0.543 | 0.377 | 0.385 | 0.26 | 0.234 | 0.511 | 0.386 | 0.419 | 0.283 | 0.265
15 | SK-MES-1 | 0.635 | 0.625 | 0.667 | 0.573 | 0.533 | 0.455 | 0.453 | 0.389 | 0.451 | 0.376 | 0.62 | 0.404 | 0.341 | 0.263 | 0.2 | 0.582 | 0.308 | 0.229 | 0.208 | 0.204
16 | SW 1573 | 0.465 | 0.35 | 0.401 | 0.342 | 0.17 | 0.982 | 0.939 | 0.897 | 1.04 | 1.2 | 0.373 | 0.336 | 0.353 | 0.296 | 0.265 | 0.474 | 0.388 | 0.304 | 0.28 | 0.248
